Patent US5661136A, “2-halo-2'-fluoro ARA adenosines as antinoplastic agents” (priority 1994, dated 1997)
Like-named read-outs stand apart in the source and are kept apart here.

Assays:
L1210 = assay: Cytotoxicity, inhibition of cell proliferation to 50% of untreated controls; type: cell-based; conditions: Mus musculus; L1210 murine leukemia line; read-out: Cytotoxicity as IC50, L1210
Text: (§1) In contrast to the previously reported 2'-substituted 9-β-D-arabinofuranosyl-2-haloadenines, the 2'-fluoro compounds were quite cytotoxic to three human cell lines, H.Ep.-2, CCRF-CEM, and K562, and the murine lukemia line, L1210.
(§2) Obviously, to be useful as anticancer agents, the nucleosides of the present invention must show the ability to kill cells in vitro. […] One cell line (L1210) is a murine lukemia, whereas the other three are human neoplasms. […] Many people today emphasize the importance of toxicity to human cell lines.

H.Ep.-2 = assay: as above; type: cell-based, human
Text: as §1, §2

CCRF-CEM = assay: as above; type: cell-based, human; conditions: read-out: Cytotoxicity as IC50, CCRF-CEM
Text: as §1, §2

[1] = biological target: E. coli purine nucleoside phosphorylase (Escherichia coli, UniProt P0ABP8); assay: Phosphorolysis of nucleosides by purine nucleoside phosphorylase; type: biochemical; conditions: 0.5 mM nucleoside, 50 mM pH 8.0 phosphate buffer, HPLC, incubation 30-240 min, read-out: % Cleavage
E. coli purine nucleoside phosphorylase, sequence (P0ABP8 2-239): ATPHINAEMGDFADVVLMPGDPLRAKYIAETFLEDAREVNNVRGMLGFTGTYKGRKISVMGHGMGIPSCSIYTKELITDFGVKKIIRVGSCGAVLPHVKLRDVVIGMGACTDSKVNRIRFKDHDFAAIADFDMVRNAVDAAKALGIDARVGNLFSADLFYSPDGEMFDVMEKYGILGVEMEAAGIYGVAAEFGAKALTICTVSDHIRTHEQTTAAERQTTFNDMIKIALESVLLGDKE
Text: Subsequently, the phosphorolysis of these compounds were compared by E. coli purine nucleoside phosphorylase. The […] and 2'-deoxyribonucleosides are rapidly cleaved by this enzyme, whereas the […] nucleosides substituted at 2' by Cl, N3, or NH2 are almost completely resistant. The 2'-fluoro compounds are less resistant to cleavage, being cleaved at roughly one-third the rate of the […] and 2'-deoxynucleosides. This reduction in cleavage rate may be acceptable for pharmaceutical purposes as phosphorylation in mammalian cells is quite rapid.
More specifically, an enzyme reaction mixture consisting of 0.5 mM nucleoside substrate, 50 mM pH 8.0 phosphate buffer and purine nucleoside phosphorylase in a final volume of 1.0 mL was allowed to incubate for 30, 60, 120, 180 and 240 minutes, and the amounts of nucleoside and substrate remaining were determined by HPLC.

ribonucleotide reductase = biological target: T1, ribonucleotide reductase (Homo sapiens, UniProt P23921); conditions: cited from earlier work; for inhibition of ribonucleotide reductase (in words): 5'-triphosphate of the nucleoside analogue
T1 sequence (P23921 1-792): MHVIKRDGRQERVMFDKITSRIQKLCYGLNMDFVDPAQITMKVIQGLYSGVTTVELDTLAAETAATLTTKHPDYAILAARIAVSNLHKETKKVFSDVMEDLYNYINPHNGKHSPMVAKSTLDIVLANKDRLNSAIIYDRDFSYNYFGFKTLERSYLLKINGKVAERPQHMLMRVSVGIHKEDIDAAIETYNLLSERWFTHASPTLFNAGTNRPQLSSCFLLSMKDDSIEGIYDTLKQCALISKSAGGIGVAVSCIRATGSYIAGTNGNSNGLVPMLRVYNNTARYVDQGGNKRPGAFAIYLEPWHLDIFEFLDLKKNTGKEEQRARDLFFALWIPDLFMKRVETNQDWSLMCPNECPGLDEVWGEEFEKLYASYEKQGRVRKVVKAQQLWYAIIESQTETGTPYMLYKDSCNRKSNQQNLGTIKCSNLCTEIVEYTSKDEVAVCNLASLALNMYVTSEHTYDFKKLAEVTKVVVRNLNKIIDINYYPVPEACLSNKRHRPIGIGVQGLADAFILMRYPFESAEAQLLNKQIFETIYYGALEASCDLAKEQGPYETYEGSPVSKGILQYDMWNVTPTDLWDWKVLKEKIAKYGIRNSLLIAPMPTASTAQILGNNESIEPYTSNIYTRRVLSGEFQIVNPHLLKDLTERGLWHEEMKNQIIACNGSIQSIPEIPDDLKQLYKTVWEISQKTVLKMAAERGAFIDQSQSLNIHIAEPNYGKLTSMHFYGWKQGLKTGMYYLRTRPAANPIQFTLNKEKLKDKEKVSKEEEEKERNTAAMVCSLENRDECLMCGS

K562 = assay: Cytotoxicity, inhibition of cell proliferation to 50% of untreated controls; type: cell-based, human
Text: as §1, §2

P388 leukemia [2] = assay: In vivo activity vs ip P388 leukemia, ip administration; set-up: species or system CD2F1 mice
Text: This, coupled with the lower toxicity of the cleavage product, 2-chloroadenine, relative to 2-fluoroadenine, make this compound a preferred compound of the present invention. The following Table III provides a summary of the in vivo activity of the 9-(2-fluoro-2-deoxy-β-D-arabinofuranosyl)-2-haloadenines vs P388 leukemia cell line in which CD2F1 mice were implanted ip with 10^6 P388 leukemia cells on day 0 in accordance with the protocol of Waud et al [Cancer Res. 50:3232 (1990)].
In the above table, the optimal dose refers to mg/kg/dose (≤LD50); ILS refers to the increase in life span; and the log change refers to the change in viable tumor cell population at the end of therapy compared to that at the start of therapy, based on the median day of death among the animals that died. The data in this table is presented in accordance with the National Cancer Institute activity criteria for drug testing in which an ILS of 20-74% is considered moderate activity, and an ILS of 75% or more is considered good activity.

[3] = relative to 9-β-D-arabinofuranosyl-2-fluoroadenine; cited from earlier work
P388 leukemia [4] = assay: Antitumor activity against ip P388 leukemia, oral administration; type: in vivo, mice; conditions: oral 67 mg/kg/dose
Description: In a similar test, compound 3d was administered orally and evaluated for antitumor activity against ip P388 leukemia cells. As the data in Table III indicates, the optimal regimen for the compound, administered ip, is in divided doses five on days 1, 5, and 9, a similar schedule was selected for the oral administration of this compound. In this set of experiments, an oral dosage of 67 mg/kg/dose, given q 6 h×4 on days 1, 5, and 9, effected a reduction in tumor burden of 1.7 log10 units, a figure which is approximately 2.5 log10 units less that that obtained in studies using ip drug administration.

K562 cells = conditions: cited from earlier work
[5] = HEp-2, H.Ep.-2 human cell line, read-out: Cytotoxicity as IC50, H.Ep.-2
[6] = K562 human cell line, read-out: Cytotoxicity as IC50, K562
[7] = 25 mg/kg/dose ip, q 3 h × 8 (Days 1, 5, 9)
[8] = 30 mg/kg/dose ip, q 3 h × 8 (Days 1, 5, 9)
[9] = 50 mg/kg/dose ip, q 3 h × 8 (Days 1, 5, 9)
[10] = 20 mg/kg/dose ip, q 3 h × 8 (Days 1, 5, 9)

## Nc1nc(Br)nc2c1ncn2[C@H]1C[C@H](O)[C@@H](CO)O1 [Y = Br, X = H]
L1210
  IC50: 900 nM
H.Ep.-2; [5]
  IC50: 20 nM
CCRF-CEM; CCRF-CEM human cell line
  IC50: 20 nM

## Nc1nc(Cl)nc2c1ncn2[C@H]1C[C@H](O)[C@@H](CO)O1 [Y = Cl, X = H, 2-chloro-2'-deoxyadenosine]
L1210
  IC50: 70 nM
H.Ep.-2; [5]
  IC50: 30 nM
CCRF-CEM; CCRF-CEM human cell line
  IC50: 3 nM
[1]
  metabolised at 500 µM: > 99%

## Nc1nc(Br)nc2c1ncn2[C@@H]1O[C@H](CO)[C@@H](O)[C@@H]1O [Y = Br, X = OH]
L1210
  IC50: 3000 nM
H.Ep.-2; [5]
  IC50: 4000 nM

## Nc1nc(Cl)nc2c1ncn2[C@@H]1O[C@H](CO)[C@@H](O)[C@@H]1O [Y = Cl, X = OH]
L1210
  IC50: < 3000 nM
H.Ep.-2; [5]
  IC50: 3000 nM
CCRF-CEM; CCRF-CEM human cell line
  IC50: 10000 nM

## Nc1nc(Cl)nc2c1ncn2[C@@H]1O[C@H](COP(=O)(O)OP(=O)(O)OP(=O)(O)O)[C@@H](O)[C@@H]1F [2-chloro-9-(2-deoxy-2-fluoro-β-D-arabinofuranosyl)adenine 5'triphosphate]
Ribonucleotide reductase
  inhibition of ribonucleotide reductase (in words): the same as that seen with 2-chloro-2'-deoxyadenosine 5'-triphosphate

## Nc1nc(F)nc2c1ncn2[C@@H]1O[C@H](CO)[C@@H](O)[C@@H]1F [compound 3g, 2-Fluoro-9-(2-deoxy-2-fluoro-β-D-arabinofuranosyl)-9H-purin-6-amine]
L1210
  IC50: 380 nM
H.Ep.-2; [5]
  IC50: 340 nM
K562; [6]
  IC50: 300 nM
CCRF-CEM; CCRF-CEM human cell line
  IC50: 140 nM
P388 leukemia [2]; [7]
  Log10 change in viable tumor cell population: -0.1
  Median % ILS (dying mice only): +81%
  Tumor-free Survivors: 0/6
P388 leukemia [2]; 100 mg/kg/dose ip, qd 1-5
  Log10 change in viable tumor cell population: -1.8
  Median % ILS (dying mice only): +63%
  Tumor-free Survivors: 0/3
[1]
  metabolised at 500 µM: 10%

## Nc1nc(Br)nc2c1ncn2[C@@H]1O[C@H](CO)[C@@H](O)[C@@H]1F [compound 3b, 2-Bromo-9-(2-deoxy-2-fluoro-β-D-arabinofuranosyl)-9H-purin-6-amine]
L1210
  IC50: 260 nM
H.Ep.-2; [5]
  IC50: 220 nM
K562; [6]
  IC50: 50 nM
CCRF-CEM; CCRF-CEM human cell line
  IC50: 20 nM
P388 leukemia [2]; [8]
  Log10 change in viable tumor cell population: -1.0
  Median % ILS (dying mice only): +100%
  Tumor-free Survivors: 0/6
P388 leukemia [2]; [9]
  Log10 change in viable tumor cell population: +1.6
  Median % ILS (dying mice only): +41%
  Tumor-free Survivors: 0/6
P388 leukemia [2]; 200 mg/kg/dose ip, qd 1-5
  Log10 change in viable tumor cell population: +0.1
  Median % ILS (dying mice only): +33%
  Tumor-free Survivors: 0/6
[1]
  metabolised at 500 µM: 45%

## Nc1nc(F)nc2c1ncn2[C@@H]1O[C@H](COP(=O)(O)OP(=O)(O)OP(=O)(O)O)[C@@H](O)[C@@H]1O [9-β-D-arabinofuranosyl-2-fluoroadenine 5'triphosphate]
Ribonucleotide reductase
  inhibition of ribonucleotide reductase (in words): much less potent inhibitor
Ribonucleotide reductase; ratio of concentrations required
  concentration inhibiting ribonucleotide reductase relative to 2-chloro-9-(2-deoxy-2-fluoro-β-D-arabinofuranosyl)adenine 5' triphosphate: 10 fold

## Nc1nc(F)nc2c1ncn2[C@@H]1O[C@H](CO)[C@@H](O)[C@@H]1O [Y = F, X = OH, 2-fluoro-9-β-D-arabinofuranosyladenine, reference compound]
H.Ep.-2; Homo sapiens, HEp-2, read-out: Cytotoxicity as IC50, H.Ep.-2
  IC50: 9000 nM
K562; Homo sapiens, K562, read-out: Cytotoxicity as IC50, K562
  IC50: 150 nM
CCRF-CEM; Homo sapiens, CCRF-CEM
  IC50: 400 nM
[1]
  metabolised at 500 µM: 99%

## Nc1nc(F)nc2c1ncn2[C@H]1C[C@H](O)[C@@H](CO)O1 [Y = F, X = H, 2-fluoro-2'-deoxyadenosine]
L1210
  IC50: 900 nM
H.Ep.-2; [5]
  IC50: 200 nM
CCRF-CEM; CCRF-CEM human cell line
  IC50: 200 nM
[1]
  metabolised at 500 µM: > 99%

## Nc1nc(Cl)nc2c1ncn2[C@@H]1O[C@H](CO)[C@@H](O)[C@@H]1F [compound 3d, 2-Chloro-9-(2-deoxy-2-fluoro-B-D-arabinofuranosyl)-2,0 9H-purin-6-amine]
L1210
  IC50: 230 nM
[3]
  solubility (in words): greater solubility
P388 leukemia [4]; q 6 h×4 on days 1, 5, and 9
  reduction in tumor burden: 1.7 log10 units
P388 leukemia [4]; q 6 h×4 on days 1, 5, and 9, compared with ip
  reduction in tumor burden, shortfall versus ip drug administration: approximately 2.5 log10 units
H.Ep.-2; [5]
  IC50: 12 nM
K562; [6]
  IC50: 3 nM
CCRF-CEM; CCRF-CEM human cell line
  IC50: 50 nM
P388 leukemia [2]; [10]
  Log10 change in viable tumor cell population: -6.6
  Median % ILS (dying mice only): +220%
  Tumor-free Survivors: 1/6
P388 leukemia [2]; [7]
  Log10 change in viable tumor cell population: -2.8
  Median % ILS (dying mice only): +118%
  Tumor-free Survivors: 0/5
P388 leukemia [2]; 100 mg/kg/dose ip, qd 1-5
  Log10 change in viable tumor cell population: -0.3
  Median % ILS (dying mice only): +38%
  Tumor-free Survivors: 0/5
P388 leukemia [2]; 200 mg/kg/dose ip, qd 1-5
  Log10 change in viable tumor cell population: -1.6
  Median % ILS (dying mice only): +59%
  Tumor-free Survivors: 0/3
[1]
  metabolised at 500 µM: 39%
K562 cells
  inhibition of DNA synthesis: inhibits DNA synthesis
